Experimental findings from patent US20230073777A1, “CYCLIC-AMP RESPONSE ELEMENT BINDING PROTEIN (CBP) AND/OR ADENOVIRAL E1A BINDING PROTEIN OF 300 KDA (P300) DEGRADATION COMPOUNDS AND METHODS OF USE” (CULLGEN (SHANGHAI), INC., priority 2019, published 2023) are described below.

The test system of this test is LNCaP cells. The experiment in a line: LNCaP cell viability assay (CellTiter-Glo). Format: cell-based. To be noted: Homo sapiens, 72 h, LNCaP prostate cancer cell viability inhibition, 3 days. The method, then:
LNCaP cells seeded in 96-well plates were treated with 10 μM GNE-781 or selected bivalent compounds, i.e. P-001, P-002, and P-019, following a 12-point 3-fold serial dilution. Three days after treatment, cell viability was determined using the CellTiter-Glo kit (Promega) following manufacturer's instructions. Cell viability was normalized to the mean values of 3 replicates of untreated cells. Dose-dependent response was analyzed following the least-squares non-linear regression method using the GraphPad Prism 5.0 software.
LNCaP cells were treated with GNE-781 or selected bivalent compounds for 3 days at indicated concentrations following a 3-fold serial dilution.
Cells were seeded at a density of 5000 cells per well in 96-well assay plates and treated with test compounds following a 12-point 3-fold serial dilution. Three days later, cell viability was determined using the CellTiter-Glo assay kit according to the manufacturer's instructions. The dose-response curves were determined and IC50 values were calculated using the GraphPad Prism software following a nonlinear regression (least squares fit) method.

A value given as a limit tells only on which side of the number the result lay.

Regarding `CNC(=O)N1CCc2c(c(N3CCCc4cc(-c5cnn(C)c5)c(C(F)F)cc43)nn2C2CCN(CCN3CCN(Cc4cccc5c4C(=O)N(C4CCC(=O)NC4=O)C5=O)CC3)CC2)C1` (stereo not drawn) [P-144, 3-(7-(Difluoromethyl)-6-(1-methyl-1H-pyrazol-4-yl)-3,4-dihydroquinolin-1(2H)-yl)-1-(1-(2-(4-((2-(2,6-dioxopiperidin-3-yl)-1,3-dioxoisoindolin-4-yl)methyl)piperazin-1-yl)ethyl)piperidin-4-yl)-N-methyl-1,4,6,7-tetrahydro-5H-pyrazolo[4,3-c]pyridine-5-carboxamide], the IC50 (CellTiter-Glo (Table 3)) is greater than 1000 nM.
In turn, `CNC(=O)N1CCc2c(c(N3CCCc4cc(-c5cnn(CC(=O)NCCOCCC(=O)N[C@H](C(=O)N6C[C@H](O)CC6C(=O)NCc6ccc(-c7scnc7C)cc6)C(C)(C)C)c5)c(C(F)F)cc43)nn2C2CCOCC2)C1` (stereo in doubt) [P-074, 3-(7-(Difluoromethyl)-6-(1-(2-((2-(3-(((S)-1-((2S,4R)-4-hydroxy-2-((4-(4-methylthiazol-5-yl)benzyl)carbamoyl)pyrrolidin-1-yl)-3,3-dimethyl-1-oxobutan-2-yl)amino)-3-oxopropoxy)ethyl)amino)-2-oxoethyl)-1H-pyrazol-4-yl)-3,4-dihydroquinolin-1(2H)-yl)-N-methyl-1-(tetrahydro-2H-pyran-4-yl)-1,4,6,7-tetrahydro-5H-pyrazolo[4,3-c]pyridine-5-carboxamide] gave an IC50 (CellTiter-Glo (Table 3)) greater than 10000 nM.
The same measure, in the same setting: for `CC(=O)N1CCc2c(c(N3CCCc4cc(-c5cnn(C)c5)c(C(F)F)cc43)nn2C2CCN(C3CCN(CCOc4cccc5c4C(=O)N(C4CCC(=O)NC4=O)C5=O)CC3)CC2)C1` (stereo not drawn) [P-134, 4-(2-(4-(5-Acetyl-3-(7-(difluoromethyl)-6-(1-methyl-1H-pyrazol-4-yl)-3,4-dihydroquinolin-1(2H)-yl)-4,5,6,7-tetrahydro-1H-pyrazolo[4,3-c]pyridin-1-yl)-[1,4′-bipiperidin]-1′-yl)ethoxy)-2-(2,6-dioxopiperidin-3-yl)isoindoline-1,3-dione] the value was greater than 500 nM; for `CC(=O)N1CCc2c(c(N3CCCc4cc(-c5cnn(C)c5)c(C(F)F)cc43)nn2C2CCN(C3CCN(CCCOc4cccc5c4C(=O)N(C4CCC(=O)NC4=O)C5=O)CC3)CC2)C1` (stereo not drawn) [P-139, 4-(3-(4-(5-Acetyl-3-(7-(difluoromethyl)-6-(1-methyl-1H-pyrazol-4-yl)-3,4-dihydroquinolin-1(2H)-yl)-4,5,6,7-tetrahydro-1H-pyrazolo[4,3-c]pyridin-1-yl)-[1,4′-bipiperidin]-1′-yl)propoxy)-2-(2,6-dioxopiperidin-3-yl)isoindoline-1,3-dione], greater than 500 nM; for `CNC(=O)N1CCc2c(c(N3CCCc4cc(-c5cnn(CC(=O)NCCOCCOCC(=O)N[C@H](C(=O)N6C[C@H](O)CC6C(=O)NCc6ccc(-c7scnc7C)cc6)C(C)(C)C)c5)c(C(F)F)cc43)nn2C2CCOCC2)C1` (stereo in doubt) [P-083, 3-(7-(Difluoromethyl)-6-(1-((S)-13-((2S,4R)-4-hydroxy-2-((4-(4-methylthiazol-5-yl)benzyl)carbamoyl)pyrrolidine-1-carbonyl)-14,14-dimethyl-2,11-dioxo-6,9-dioxa-3,12-diazapentadecyl)-1H-pyrazol-4-yl)-3,4-dihydroquinolin-1(2H)-yl)-N-methyl-1-(tetrahydro-2H-pyran-4-yl)-1,4,6,7-tetrahydro-5H-pyrazolo[4,3-c]pyridine-5-carboxamide], greater than 10000 nM.
On the same count and under the same terms, in the case of `CNC(=O)N1CCc2c(c(N3CCCc4cc(-c5cnn(CC(=O)NCCOCCOCCOCCOCCOCCC(=O)N[C@H](C(=O)N6C[C@H](O)CC6C(=O)NCc6ccc(-c7scnc7C)cc6)C(C)(C)C)c5)c(C(F)F)cc43)nn2C2CCOCC2)C1` (stereo in doubt) [P-082, 3-(7-(Difluoromethyl)-6-(1-((S)-23-((2S,4R)-4-hydroxy-2-((4-(4-methylthiazol-5-yl)benzyl)carbamoyl)pyrrolidine-1-carbonyl)-24,24-dimethyl-2,21-dioxo-6,9,12,15,18-pentaoxa-3,22-diazapentacosyl)-1H-pyrazol-4-yl)-3,4-dihydroquinolin-1(2H)-yl)-N-methyl-1-(tetrahydro-2H-pyran-4-yl)-1,4,6,7-tetrahydro-5H-pyrazolo[4,3-c]pyridine-5-carboxamide] it was greater than 10000 nM; in that of `CC(=O)N1CCc2c(c(N3CCCc4cc(-c5cnn(C)c5)c(C(F)F)cc43)nn2C2CCN(CCN3CCN(Cc4cccc5c4C(=O)N(C4CCC(=O)NC4=O)C5=O)CC3)CC2)C1` (stereo not drawn) [P-145, 4-((4-(2-(4-(5-Acetyl-3-(7-(difluoromethyl)-6-(1-methyl-1H-pyrazol-4-yl)-3,4-dihydroquinolin-1(2H)-yl)-4,5,6,7-tetrahydro-1H-pyrazolo[4,3-c]pyridin-1-yl)piperidin-1-yl)ethyl)piperazin-1-yl)methyl)-2-(2,6-dioxopiperidin-3-yl)isoindoline-1,3-dione], greater than 1000 nM.
Turning to `CNC(=O)N1CCc2c(c(N3CCCc4cc(-c5cnn(C)c5)c(C(F)F)cc43)nn2C2CCN(C(=O)CNc3cccc4c3C(=O)N(C3CCC(=O)NC3=O)C4=O)CC2)C1` (stereo not drawn) [P-013], the concentration for half-maximal inhibition (IC50) (CellTiter-Glo (Table 2)) came to 105 nM.
For the molecule `CC(=O)N1CCc2c(c(N3CCCc4cc(-c5cnn(C)c5)c(C(F)F)cc43)nn2C2CCN(C(=O)CN3CCN(Cc4cccc5c4C(=O)N(C4CCC(=O)NC4=O)C5=O)CC3)CC2)C1` (stereo not drawn) [P-138, 4-((4-(2-(4-(5-Acetyl-3-(7-(difluoromethyl)-6-(1-methyl-1H-pyrazol-4-yl)-3,4-dihydroquinolin-1(2H)-yl)-4,5,6,7-tetrahydro-1H-pyrazolo[4,3-c]pyridin-1-yl)piperidin-1-yl)-2-oxoethyl)piperazin-1-yl)methyl)-2-(2,6-dioxopiperidin-3-yl)isoindoline-1,3-dione], the IC50 (CellTiter-Glo (Table 3)) is greater than 500 nM.
Same read-out and setting: in the case of `CNC(=O)N1CCc2c(c(N3CCCc4cc(-c5cnn(C)c5)c(C(F)F)cc43)nn2C2CCN(C(=O)CN3CCC(Nc4cccc5c4C(=O)N(C4CCC(=O)NC4=O)C5=O)CC3)CC2)C1` (stereo not drawn) [P-101, 3-(7-(Difluoromethyl)-6-(1-methyl-1H-pyrazol-4-yl)-3,4-dihydroquinolin-1(2H)-yl)-1-(1-(2-(4-((2-(2,6-dioxopiperidin-3-yl)-1,3-dioxoisoindolin-4-yl)amino)piperidin-1-yl)acetyl)piperidin-4-yl)-N-methyl-1,4,6,7-tetrahydro-5H-pyrazolo[4,3-c]pyridine-5-carboxamide] it was greater than 1000 nM.
The same measure, in the same setting: in the case of `CNC(=O)N1CCc2c(c(N3CCCc4cc(-c5cnn(C)c5)c(C(F)F)cc43)nn2C2CCN(CCCCCC#Cc3cccc4c3C(=O)N(C3CCC(=O)NC3=O)C4=O)CC2)C1` (stereo not drawn) [P-098, 3-(7-(Difluoromethyl)-6-(1-methyl-1H-pyrazol-4-yl)-3,4-dihydroquinolin-1(2H)-yl)-1-(1-(7-(2-(2,6-dioxopiperidin-3-yl)-1,3-dioxoisoindolin-4-yl)hept-6-yn-1-yl)piperidin-4-yl)-N-methyl-1,4,6,7-tetrahydro-5H-pyrazolo[4,3-c]pyridine-5-carboxamide] it was 1070 nM.
Still for that read-out and setting: for `CNC(=O)N1CCc2c(c(N3CCCc4cc(-c5cnn(C)c5)c(C(F)F)cc43)nn2C2CCN(C(=O)CN3CCN(Cc4cccc5c4C(=O)N(C4CCC(=O)NC4=O)C5=O)CC3)CC2)C1` (stereo not drawn) [P-137, 3-(7-(Difluoromethyl)-6-(1-methyl-1H-pyrazol-4-yl)-3,4-dihydroquinolin-1(2H)-yl)-1-(1-(2-(4-((2-(2,6-dioxopiperidin-3-yl)-1,3-dioxoisoindolin-4-yl)methyl)piperazin-1-yl)acetyl)piperidin-4-yl)-N-methyl-1,4,6,7-tetrahydro-5H-pyrazolo[4,3-c]pyridine-5-carboxamide] the value was greater than 500 nM.
Molecule `CC(=O)N1CCc2c(c(N3CCCc4cc(-c5cnn(C)c5)c(C(F)F)cc43)nn2C2CCN(CCCCCC(=O)Nc3cccc4c3C(=O)N(C3CCC(=O)NC3=O)C4=O)CC2)C1` (stereo not drawn) [P-136, 6-(4-(5-Acetyl-3-(7-(difluoromethyl)-6-(1-methyl-1H-pyrazol-4-yl)-3,4-dihydroquinolin-1(2H)-yl)-4,5,6,7-tetrahydro-1H-pyrazolo[4,3-c]pyridin-1-yl)piperidin-1-yl)-N-(2-(2,6-dioxopiperidin-3-yl)-1,3-dioxoisoindolin-4-yl)hexanamide] came in with an IC50 (CellTiter-Glo (Table 3)) greater than 500 nM.
On the same count and under the same terms, in the case of `CC(=O)N1CCc2c(c(N3CCCc4cc(-c5cnn(C)c5)c(C(F)F)cc43)nn2C2CCN(C3CN(CCCOc4cccc5c4C(=O)N(C4CCC(=O)NC4=O)C5=O)C3)CC2)C1` (stereo not drawn) [P-140, 4-(3-(3-(4-(5-Acetyl-3-(7-(difluoromethyl)-6-(1-methyl-1H-pyrazol-4-yl)-3,4-dihydroquinolin-1(2H)-yl)-4,5,6,7-tetrahydro-1H-pyrazolo[4,3-c]pyridin-1-yl)piperidin-1-yl)azetidin-1-yl)propoxy)-2-(2,6-dioxopiperidin-3-yl)isoindoline-1,3-dione] it was greater than 500 nM; in that of `CNC(=O)N1CCc2c(c(N3CCCc4cc(-c5cnn(C)c5)c(C(F)F)cc43)nn2C2CCN(C(=O)CN3CCC(C#Cc4cccc5c4C(=O)N(C4CCC(=O)NC4=O)C5=O)CC3)CC2)C1` (stereo not drawn) [P-103, 3-(7-(Difluoromethyl)-6-(1-methyl-1H-pyrazol-4-yl)-3,4-dihydroquinolin-1(2H)-yl)-1-(1-(2-(4-((2-(2,6-dioxopiperidin-3-yl)-1,3-dioxoisoindolin-4-yl)ethynyl)piperidin-1-yl)acetyl)piperidin-4-yl)-N-methyl-1,4,6,7-tetrahydro-5H-pyrazolo[4,3-c]pyridine-5-carboxamide], 146 nM.
